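Following 48 hours of exposure in 96-well plates, responses at five concentrations were used to interpolate endpoints linearly. GI50 marks 50% less growth.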 Active and inactive are the calls of the source. Cut-off read from the data, not from the text of the source: active = GI50 up to about 1.1 µM and inactive = higher.
How the values were obtained:
Assay in all cases: NCI tumour cell line growth inhibition, 48 h
SN12C = tested on: SN12C
SF-295 = tested on: SF-295
HCT-116 = tested on: HCT-116
IGROV-1 = tested on: IGROV-1
NCI-H23 = tested on: NCI-H23
M14 = tested on: M14
U-251 = tested on: U-251
UO-31 = tested on: UO-31
UACC-257 = tested on: UACC-257
NCI-H226 = tested on: NCI-H226
786-0 = tested on: 786-0
OVCAR-4 = tested on: OVCAR-4
OVCAR-5 = tested on: OVCAR-5
CCRF-CEM = tested on: CCRF-CEM
OVCAR-8 = tested on: OVCAR-8
SR = tested on: SR
RPMI-8226 = tested on: RPMI-8226

Measured: GI50

COc1ccc(/C=C/C(=O)c2c(-c3ccccc3)nn(C)c(=O)c2N2CC2C)cc1 (stereo not drawn)
inactive: SN12C 37 µM | SF-295 33.8 µM | HCT-116 36.1 µM | IGROV-1 59.3 µM | NCI-H23 19 µM | M14 28.8 µM | U-251 27.9 µM | UO-31 70.3 µM | UACC-257 42.2 µM | NCI-H226 45.3 µM | 786-0 36.4 µM | OVCAR-4 27.9 µM | OVCAR-5 37.6 µM | CCRF-CEM 22.9 µM | OVCAR-8 32.4 µM

COC(=O)C(CCCC1(c2ccccc2)OCCO1)C(C)=O (stereo not drawn)
inactive: SN12C > 100 µM | SF-295 > 100 µM | HCT-116 > 100 µM | IGROV-1 > 100 µM | NCI-H23 > 100 µM | M14 > 100 µM | U-251 > 100 µM | UO-31 > 100 µM | UACC-257 90.2 µM | NCI-H226 40.9 µM | 786-0 > 100 µM | OVCAR-4 > 100 µM | SR 85.1 µM | OVCAR-5 > 100 µM | CCRF-CEM > 100 µM | OVCAR-8 > 100 µM

Nc1nc(N)c(N=O)c(Nc2ccc(Br)cc2)n1
inactive: SN12C 17.8 µM | SF-295 29 µM | HCT-116 13.3 µM | IGROV-1 3.46 µM | NCI-H23 23.4 µM | M14 16.2 µM | U-251 15.9 µM | UACC-257 15.6 µM | NCI-H226 32.2 µM | 786-0 28.7 µM | OVCAR-4 48 µM | SR > 100 µM | OVCAR-5 31.2 µM | CCRF-CEM 18.2 µM | OVCAR-8 27.2 µM

Cc1cc2c(cc1C)[n+]([O-])c(-c1c(Cl)cccc1Cl)c(N)[n+]2[O-]
inactive: SN12C 50.9 µM | SF-295 42.5 µM | RPMI-8226 67.5 µM | IGROV-1 41.3 µM | NCI-H23 24.1 µM | M14 33 µM | U-251 33.3 µM | UO-31 30.3 µM | UACC-257 24.6 µM | NCI-H226 23.9 µM | 786-0 52 µM | OVCAR-4 39 µM | OVCAR-5 > 100 µM | OVCAR-8 38.8 µM

C/C=C(/I)CBr
inactive: SN12C 17.2 µM | HCT-116 13.9 µM | RPMI-8226 10.4 µM | IGROV-1 16 µM | NCI-H23 16.7 µM | M14 13.8 µM | U-251 > 10 µM | UO-31 18.9 µM | NCI-H226 20.6 µM | 786-0 17 µM | OVCAR-4 17.3 µM | OVCAR-5 > 10 µM | CCRF-CEM 3.78 µM | OVCAR-8 19.4 µM

CCOC(=O)NC(=O)c1cn(CCN2CCN(C(=O)NCCCCCCNC(=O)N3CCN(CCn4cc(C(=O)NC(=O)OCC)c(=O)[nH]c4=O)CC3)CC2)c(=O)[nH]c1=O
inactive: SN12C > 100 µM | SF-295 > 100 µM | HCT-116 > 100 µM | RPMI-8226 > 100 µM | IGROV-1 > 100 µM | NCI-H23 > 100 µM | M14 > 100 µM | U-251 > 100 µM | UO-31 > 100 µM | UACC-257 > 100 µM | 786-0 > 100 µM | OVCAR-4 > 100 µM | SR > 100 µM | OVCAR-5 > 100 µM | OVCAR-8 > 100 µM

CC1=NN=C(NCCN(C)C)C/C1=C/c1ccccc1Cl
inactive: SN12C > 100 µM | SF-295 > 100 µM | HCT-116 > 100 µM | IGROV-1 > 100 µM | NCI-H23 > 100 µM | M14 39.4 µM | U-251 > 100 µM | UO-31 > 100 µM | UACC-257 23.5 µM | 786-0 > 100 µM | OVCAR-4 > 100 µM | OVCAR-5 79.1 µM | OVCAR-8 > 100 µM

Cc1nc2c(n1CC(C)C)C(=O)c1ccccc1C2=O
inactive: SN12C 37.1 µM | SF-295 39.2 µM | HCT-116 20.8 µM | IGROV-1 32.6 µM | NCI-H23 18 µM | M14 61.7 µM | U-251 38.6 µM | UO-31 26.5 µM | UACC-257 17.7 µM | NCI-H226 > 100 µM | 786-0 55.1 µM | OVCAR-4 43.4 µM | SR 41.6 µM | CCRF-CEM 38.2 µM | OVCAR-8 35.5 µM

COC(=O)C(CC(C)=O)CS(=O)(=O)CC(=O)C(=O)Nc1cccc([N+](=O)[O-])c1 (stereo not drawn)
inactive: SN12C > 100 µM | HCT-116 > 100 µM | RPMI-8226 > 100 µM | IGROV-1 > 100 µM | NCI-H23 > 100 µM | M14 > 100 µM | U-251 > 100 µM | UO-31 > 100 µM | UACC-257 > 100 µM | NCI-H226 > 100 µM | 786-0 > 100 µM | OVCAR-4 > 100 µM | OVCAR-5 > 100 µM | CCRF-CEM > 100 µM | OVCAR-8 > 100 µM

COc1ccc(C(=O)C(c2ccc(OC)cc2)C2(O)C(=O)Nc3c(Cl)cc(Cl)cc32)cc1 (stereo not drawn)
inactive: SN12C 18.7 µM | SF-295 19.3 µM | RPMI-8226 11.9 µM | NCI-H23 19.5 µM | M14 16.9 µM | U-251 33.1 µM | UO-31 27.7 µM | UACC-257 17.3 µM | NCI-H226 18.4 µM | 786-0 14.3 µM | OVCAR-4 6.34 µM | OVCAR-5 20.1 µM | CCRF-CEM 15.6 µM | OVCAR-8 23.7 µM

Cc1c(C(=O)NCCO)[n+]([O-])c2cc(Cl)ccc2[n+]1[O-]
inactive: SN12C > 100 µM | SF-295 > 100 µM | HCT-116 > 100 µM | RPMI-8226 > 100 µM | IGROV-1 > 100 µM | NCI-H23 > 100 µM | M14 > 100 µM | U-251 > 100 µM | UO-31 > 100 µM | UACC-257 > 100 µM | 786-0 > 100 µM | OVCAR-4 > 100 µM | SR > 100 µM | OVCAR-5 > 100 µM | CCRF-CEM > 100 µM | OVCAR-8 > 100 µM

OC(c1ccccn1)C1CNc2ccccc21 (stereo not drawn)
inactive: SN12C > 100 µM | SF-295 > 100 µM | HCT-116 > 100 µM | RPMI-8226 > 100 µM | IGROV-1 > 100 µM | NCI-H23 > 100 µM | M14 > 100 µM | U-251 > 100 µM | UO-31 > 100 µM | UACC-257 > 100 µM | NCI-H226 > 100 µM | 786-0 > 100 µM | OVCAR-4 > 100 µM | OVCAR-5 > 100 µM | CCRF-CEM > 100 µM | OVCAR-8 > 100 µM

Cc1ccc(C)c(N2C(=O)C(=O)C(c3nc4ccccc4o3)/C(=N/N)C2=O)c1 (stereo not drawn)
inactive: SN12C > 100 µM | SF-295 > 100 µM | HCT-116 > 100 µM | IGROV-1 > 100 µM | NCI-H23 > 100 µM | M14 > 100 µM | U-251 > 100 µM | UO-31 > 100 µM | UACC-257 > 100 µM | NCI-H226 > 100 µM | 786-0 > 100 µM | OVCAR-4 > 100 µM | SR > 100 µM | CCRF-CEM > 100 µM | OVCAR-8 > 100 µM
